Patent publication US9981964B2 (Agency for Science, Technology and Research, priority 2013, dated 2018)
“Also recorded” adds a separate entry of the source. Like-named read-outs stand apart in the source and are kept apart here.

Tests used:
[1] = test system: mammalian PORCN; experiment: PORCN-null HT1080 cells transfected with mammalian PORCN, WNT3A and STF reporter, luciferase; type: cell-based; details: STF luciferase, FIG. 1
Method: PORCN-null HT1080 cells were transfected with mammalian or Xenopus PORCN expression plasmids, along with WNT3A, STF reporter and mCherry as transfection control. 6 hours after transfection, cells were treated with the compounds or DMSO as indicated, and the following day assayed for luciferase. Xenopus PORCN was resistant to the inhibitory effects of compounds.

[2] = test system: HEK293-STF3A cells; experiment: STF3A assay (STF luciferase reporter in Wnt3A-expressing HEK293 cells); type: cell-based; details: Homo sapiens, 24 h, 1 day of treatment
Summary of the method: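 HEK293 cells carrying the STF reporter and expressing Wnt3A, seeded 2×10^4 per well overnight, then treated 1 day with compound at final 50 μM to 1.5 nM. Luciferase activity read by luminescence after Steady-Glo reagent, 10 min at room temperature.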

[3] = test system: CFPAC-1 cells; experiment: Soft agar colony formation assay, CFPAC-1; type: cell-based; details: for IC50: Homo sapiens
Method: (§1) AsPC-1 cells were maintained in RPMI164 supplemented with 10% FBS, 2 mM L-glutamine and P/S (100 units/ml penicillin and 100 μg/ml streptomycin). HPAF-II cells were maintained in MEM (Eagles') supplemented with 10% FBS, 2 mM L-glutamine and P/S (100 units/ml penicillin and 100 μg/ml streptomycin). CFPAC-1 cells were maintained in Iscove MEM supplemented with 10% FBS, 2 mM L-glutamine and P/S (100 units/ml penicillin and 100 μg/ml streptomycin).
(§2) 600 μl of 0.6% agar was added to 24-well plate to form the base layer. Then a middle layer of 0.36% agar (containing 5000 cells and serially diluted compound) was added on to the base layer. Finally 500 μl of fresh growth medium was added to the top of the middle layer. The plates were incubated at 37° C. with 5% carbon dioxide in a humidified incubator for 2 weeks. Formation of colonies was observed using a light microscope. When the colony size was larger than 500 μm, 70 μl MTT (5 mg/ml) was added to each well and the plates were incubated at 37° C. for at least 2 hours. Colonies were counted with GelCount® instrument. The colony counts were plotted against compound concentrations using the GraphPad Prism software. The software was also used to perform non-linear curve fitting and calculation of compound concentration that inhibited 50% colony formation.

[4] = test system: HPAF-II cells; experiment: Soft agar colony formation assay, HPAF-II; type: cell-based; details: for IC50: Homo sapiens
Method: as §1, §2

[5] = test system: Palmitoylation of Wnt3a; experiment: Wnt3A palmitoylation assay (HeLa cells over-expressing V5-Wnt3a, alkyne palmitate, click chemistry); type: cell-based; details: 100 nM compound
Method: The assay used to determine the inhibition of the palmitoylation of Wnts by compound was described by Yap et al, (Yap M C, Kostiuk M A, Martin D D, Perinpanayagam M A, Hak P G, Siddam A, Majjigapu J R, Rajaiah G, Keller B O, Prescher J A, Wu P, Bertozzi C R, Falck J R, Berthiaume L G. 2010. Rapid and selective detection of fatty acylated proteins using omega-alkynyl-fatty acids and click chemistry. J Lipid Res. 51(6):1566-1580) with some modification. 3×10^6 HeLa cells were seeded in 10 cm culture dish and incubated at 37° C. overnight. […] After six hours, the cells were washed with PBS and treated with 100 μM alkyne palmitate in medium with 5% BSA. 100 nM compound or DMSO was added and the cells were incubated overnight at 37° C. The cells were lyzed and 600 μg cell lysate was collected and incubated with anti-V5 antibody (Invitrogen) followed by the pull down of V5-Wnt3a with the addition of Protein A/G agarose beads (Thermo scientific). The pulled down lysates containing V5-Wnt3a was click-reacted with biotin-azide (Invitrogen). The biotin-labelled protein lysate was then separated on SDS-PAGE and transferred to a nitrocellulose membrane. The membrane was incubated with primary anti-V5 antibody, followed by secondary anti-mouse Dylight 680 (Thermo scientific) to detect V5-Wnt3a. […]

[6] = test system: AsPC-1 cells; experiment: Soft agar colony formation assay, AsPC-1; type: cell-based; details: for IC50: Homo sapiens
Method: as §1, §2

[7] = test system: MMTV-Wnt1 tumor; type: in vivo, BALBc mice; details: for % T/C / % TGI / NTRD / T/C / TRD: Day 14; for tumor growth in treated mice: daily treatment for 14 days, FIG. 2 and FIG. 3
Method: 8-10 weeks old Female BALBc mice were anesthetised with 150 mg/kg Ketamine +75 mg/kg Xylazine. Under aseptic conditions, skin near the 4th mammary fat pad was incised, Mammary fat pad was tweaked with forceps and tumor fragment ˜2 mm^3 was implanted. The incision was closed using a tissue adhesive. Animals were randomised into groups of eight and treated daily with the test compounds for 14 days. Tumors were measured in two dimensions using calipers, and volume was calculated using the formula: Tumor Volume (mm^3)=[…]. Maximum tumor volume limit was 2000 mm^3.

## O=C(CN1CCCC2=C1C(=O)N(C1CC1)C2=O)Nc1ccc(-c2cccnc2)cn1 [Compound 14, N-([3,3′-bipyridin]-6-yl)-2-(6-cyclopropyl-5,7-dioxo-2,3,4,5,6,7-hexahydro-1 H-pyrrolo[3,4-b]pyridin-1-yl)acetamide]
[1]
  inhibition of the activity of mammalian porcupine: inhibit the activity of mammalian porcupine
[2]
  IC50: < 100 nM

## O=C(CN1CCCC2=C1C(=O)N(C1CC1)C2=O)Nc1ccc(-c2cccnc2)nn1 [Compound 43, 2-(6-cyclopropyl-5,7-dioxo-2,3,4,5,6,7-hexahydro-1H-pyrrolo[3,4-b]pyridin-1-yl)-N-(6-(pyridin-3-yl)pyridazin-3-yl)acetamide]
[3]; CFPAC-1, colony formation
  Maximum inhibition: 67%
[3]; 336 h, CFPAC-1, 50% colony growth inhibition, 2 weeks, read-out: Test 1 IC50
  IC50: 300 nM
[3]; 336 h, CFPAC-1, 50% colony growth inhibition, 2 weeks, read-out: Test 2 IC50
  IC50: 140 nM
[3]; CFPAC-1, mean of two independent experiments, read-out: Mean IC50
  IC50: 220 nM
[1]
  inhibition of the activity of mammalian porcupine: inhibit the activity of mammalian porcupine; also recorded: inhibition of the activity of mammalian porcupine
[4]; 336 h, 50% colony growth inhibition, 2 weeks, read-out: Test 1 IC50
  IC50: 4 nM
[4]; 336 h, 50% colony growth inhibition, 2 weeks, read-out: Test 2 IC50
  IC50: 2 nM
[4]; mean of two independent experiments, read-out: Mean IC50
  IC50: 3 nM
[4]; colony formation
  Maximum inhibition: 100%
[5]
  inhibition of palmitoylation of Wnt3a: inhibited; also recorded: inhibition of Palmitoylation of Wnt3a
[6]; AsPC-1, colony formation
  Maximum inhibition: 79%
[6]; ASPC1, 336 h, AsPC-1, 50% colony growth inhibition, 2 weeks, read-out: Test 1 IC50
  IC50: 4 nM
[6]; ASPC1, 336 h, AsPC-1, 50% colony growth inhibition, 2 weeks, read-out: Test 2 IC50
  IC50: 5 nM
[6]; ASPC1, AsPC-1, mean of two independent experiments, read-out: Mean IC50
  IC50: 5 nM
[2]
  IC50: < 100 nM
[7]; 1 mg/Kg daily
  % T/C: 77.5%
  % TGI: 24%
  NTRD: 0/8
  T/C: 0.775
  TRD: 0/8
[7]; 3 mg/Kg daily
  % T/C: 33.7%
  % TGI: 72%
  NTRD: 0/8
  T/C: 0.337
  TRD: 0/8
[7]; 10 mg/Kg daily
  % T/C: 18.5%
  % TGI: 97%
  NTRD: 0/8
  T/C: 0.185
  TRD: 0/8
[7]
  tumor growth in treated mice: decreased tumor growth in all the treated mice

## O=C(CN1CCCC2=C1C(=O)N(C1CC1)C2=O)Nc1ccc(-c2cncc(F)c2)nn1 [Compound 52, 2-(6-cyclopropyl-5,7-dioxo-2,3,4,5,6,7-hexahydro-1H-pyrrolo[3,4-b]pyridin-1-yl)-N-(6-(5-fluoropyridin-3-yl)pyridazin-3-yl)acetamide]
[2]
  IC50: < 100 nM
[7]
  tumor growth in treated mice: decreased tumor growth in all the treated mice

## CN1C(=O)C2=C(C1=O)N(CC(=O)Nc1cc(F)c(-c3cccnc3)cn1)CCC2 [Compound 155, N-(4-fluoro-3,3′-bipyridin-6-yl)-2-(6-methyl-5,7-dioxo-2,3,4,5,6,7-hexahydro-1H-pyrrolo[3,4-b]pyridin-1-yl)acetamide]
[2]
  IC50: < 100 nM

## O=C(CN1CCCC2=C1C(=O)N(C1CC1)C2=O)Nc1ccc(-c2cc(F)ccn2)cn1 [Compound 156, 2-(6-cyclopropyl-5,7-dioxo-2,3,4,5,6,7-hexahydro-1H-pyrrolo[3,4-b]pyridin-1-yl)-N-(4-fluoro-[2,3′-bipyridin]-6′-yl)acetamide]
[2]
  IC50: < 100 nM

## Cc1cnc(-c2ccc(NC(=O)CN3CCCC4=C3C(=O)N(C3CC3)C4=O)nc2)cn1 [Compound 157, 2-(6-cyclopropyl-5,7-dioxo-2,3,4,5,6,7-hexahydro-1H-pyrrolo[3,4-b]pyridin-1-yl)-N-(5-(5-methylpyrazin-2-yl)pyridin-2-yl)acetamide]
[2]
  IC50: < 100 nM

## Cc1ccc(-c2ccc(NC(=O)CN3CCCC4=C3C(=O)N(C)C4=O)cn2)cc1 [Compound 158, 2-(6-methyl-5,7-dioxo-2,3,4,5,6,7-hexahydro-1H-pyrrolo[3,4-b]pyridin-1-yl)-N-(6-(p-tolyl)pyridin-3-yl)acetamide]
[2]
  IC50: < 100 nM
